From patent US8796328B2, “TRPV1 antagonists” (AbbVie Inc., priority 2012, dated 2014)
Like-named read-outs stand apart in the source and are kept apart here.

Experiments:
[1] = target: human TRPV1 receptor (hTRPV1) (Homo sapiens (Human), UniProt Q8NER1); test: Capsaicin activation assay (FLIPR intracellular Ca2+); format: cell-based
In short: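 Recombinant HEK293 cells stably expressing hTRPV1, Calcium-4 dye loaded 90–120 min at room temperature, were preincubated with compound (12-point, one-third-log) for 3 min before capsaicin challenge. Peak FLIPR fluorescence minus baseline was normalised to capsaicin control response; IC50 from four-parameter logistic fit.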

rats [2] = test: Rat tail immersion assay (noxious thermosensation, 55° C. water bath); format: in vivo
Protocol: Compounds were tested for their effects on noxious thermosensation using the tail immersion assay. Testing was performed one hour following oral administration of 100 μmol/kg of the compound in 10% ethanol/20% Tween-80/70% PEG-400 (2 mL/kg). Mophine (6 mg/kg) was administered interperitoneally (i.p.) using saline (2 mL/kg) as the vehicle. For testing, a circulating water bath was heated to 55° C. Thirty to sixty minutes post dosing, the rats were handled for a few seconds to calm them down and then cupped with their back against the testers hand at a slight angle with head facing away from tester. With rat in one hand and a 0.01 second stopwatch in the other hand, the tail was quickly immersed 6-8 cm in water bath or to a distance leaving 2-3 cm of tail out of water. The timer was started simultaneously. When the rat flinched or attempted withdrawal, timer was immediately stopped and the rat's tail was quickly removed from water bath. This response latency (in seconds) was recorded. Process was repeated 3 times with 3-4 minutes between readings for a final average.
For a given example, a percent increase in the average response latency (in seconds) for tail withdrawal relative to a vehicle control was determined % increase=[(tc−tv)/tv]×100%
tc=response time (in seconds) with oral dosing of compounds
tv=response time (in seconds) with oral dosing of vehicle
The % increases in tail withdrawal latency relative to vehicle control are divided into the following categories: […]

rats [3] = test: Rat acute capsaicin-induced flinching behavior; format: in vivo; conditions: single acute oral dose 100 μmol/kg, capsaicin 2.5 μg one hour after dosing, five minute observation
Protocol: Rats were placed in individual observation cages. Following an acclimation period of 30 minutes, selected compounds were administered orally at a dose of 100 μmol/kg orally in a vehicle (10% ethanol/20% Tween 80/70% polyethylene glycol-400) at a volume of 2 mL/kg. One hour after administration of the compound, 2.5 μg of capsaicin in a 10 μL solution of 10% ethanol/90% hydroxypropyl-β-cyclodextrin was injected subcutaneously into the dorsal aspect of the right hind paw. The observation cage was then suspended above mirrors in order to facilitate observation. […] The number of flinching behaviors of the injured paw was recorded during the five minute observation period (Gilchrist, H. D.; Allard, B. L.; Simone, D. A.; Enhanced withdrawal responses to heat and mechanical stimuli following intraplantar injection of capsaicin in rats. Pain, 1996, 67, 179-188). A single acute oral dose of Example 10 as described above produced a 56% reduction in flinching behavior relative to vehicle-treated animals.

Chain of human TRPV1 receptor (hTRPV1) (Q8NER1 whole entry): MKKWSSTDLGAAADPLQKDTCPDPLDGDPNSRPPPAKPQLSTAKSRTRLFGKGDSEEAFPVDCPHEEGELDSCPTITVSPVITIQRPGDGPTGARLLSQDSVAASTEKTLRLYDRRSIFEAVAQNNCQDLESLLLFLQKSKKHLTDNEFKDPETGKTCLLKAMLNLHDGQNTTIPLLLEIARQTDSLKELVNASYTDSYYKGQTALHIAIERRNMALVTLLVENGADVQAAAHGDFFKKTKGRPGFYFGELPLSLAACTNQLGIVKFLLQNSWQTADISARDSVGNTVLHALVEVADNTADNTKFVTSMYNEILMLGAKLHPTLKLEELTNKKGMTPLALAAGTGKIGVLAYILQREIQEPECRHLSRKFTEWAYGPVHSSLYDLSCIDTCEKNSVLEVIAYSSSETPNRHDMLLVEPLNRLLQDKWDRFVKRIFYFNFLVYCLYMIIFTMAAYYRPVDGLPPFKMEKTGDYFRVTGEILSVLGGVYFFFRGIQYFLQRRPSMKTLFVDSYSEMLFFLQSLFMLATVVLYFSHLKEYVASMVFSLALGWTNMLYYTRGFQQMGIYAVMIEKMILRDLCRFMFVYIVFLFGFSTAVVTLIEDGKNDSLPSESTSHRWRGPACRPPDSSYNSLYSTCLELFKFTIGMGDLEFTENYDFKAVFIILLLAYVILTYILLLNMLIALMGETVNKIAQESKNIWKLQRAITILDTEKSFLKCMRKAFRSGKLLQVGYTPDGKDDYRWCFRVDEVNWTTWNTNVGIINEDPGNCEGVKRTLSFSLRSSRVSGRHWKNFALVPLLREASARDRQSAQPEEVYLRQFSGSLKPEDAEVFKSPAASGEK

IC50 ([1]; Table 2, capsaicin-induced intracellular Ca2+ increase, read-out: human TRPV1 capsaicin IC50): 54 nM
IC50 ([1]; inhibition of capsaicin-induced intracellular Ca2+ increase, compounds added 3 minutes prior to capsaicin, read-out: hTRPV1 cap. IC50): 54 nM
SMILES: CS(=O)(=O)Nc1ccc(CNC(=O)N[C@@H]2CC(CF)(CF)Oc3cc(C(F)(F)F)ccc32)cc1F [Example 10, N-{4-[({[(4R)-2,2-bis(fluoromethyl)-7-(trifluoromethyl)-3,4-dihydro-2H-chromen-4-yl]carbamoyl}amino)methyl]-2-fluorophenyl}methanesulfonamide]
% Increase in Tail Withdrawal Latency (rats [2]; rat, oral 100 μmol/kg, one hour post dosing, relative to vehicle): −
increase in tail withdrawal latency relative to vehicle-treated animals (rats [2]; rats, after oral administration): < 10%
reduction in flinching behavior relative to vehicle-treated animals (rats [3]): 56%
